How the values were obtained:
Assay in all cases: KINOMEscan competition binding
Conditions in all cases: compound 10.0 µM
CAMK1D (human) = CAMK1D (human) (UniProt Q8IU85)
RPS6KA6 KD1 (human) = RPS6KA6 KD1 (human) (UniProt Q9UK32)
CDK18 (human) = CDK18 (human) (UniProt Q07002)
DMPK (human) = DMPK (human) (UniProt Q09013)
STK35 (human) = STK35 (human) (UniProt Q8TDR2)
CAMK2A (human) = CAMK2A (human) (UniProt Q9UQM7)
PIK3C2G (human) = PIK3C2G (human) (UniProt O75747)
CDK13 (human) = CDK13 (human) (UniProt Q14004)
PKMYT1 (human) = PKMYT1 (human) (UniProt Q99640)
PRKCE (human) = PRKCE (human) (UniProt Q02156)
CRK2 (P.falciparum) = CRK2 (P.falciparum) (UniProt P61075)
PIM3 (human) = PIM3 (human) (UniProt Q86V86)
NTRK2 (human) = NTRK2 (human) (UniProt Q16620)
MELK (human) = MELK (human) (UniProt Q14680)
EPHA7 (human) = EPHA7 (human) (UniProt Q15375)
MAP3K9 (human) = MAP3K9 (human) (UniProt P80192)
STK38 (human) = STK38 (human) (UniProt Q15208)
GRK4 (human) = GRK4 (human) (UniProt P32298)
PRPF4B (human) = PRPF4B (human) (UniProt Q13523)
TGFBR1 (human) = TGFBR1 (human) (UniProt P36897)
CDK8 (human) = CDK8 (human) (UniProt P49336)
CSNK1A1L (human) = CSNK1A1L (human) (UniProt Q8N752)
[1] = target: TYK2 JH1 catalytic (human) (UniProt P29597)
ACVRL1 (human) = ACVRL1 (human) (UniProt P37023)
PAK4 (human) = PAK4 (human) (UniProt O96013)
TAOK3 (human) = TAOK3 (human) (UniProt Q9H2K8)
PKN1 (human) = PKN1 (human) (UniProt Q16512)
NTRK1 (human) = NTRK1 (human) (UniProt P04629)
RIPK1 (human) = RIPK1 (human) (UniProt Q13546)
PIK3CB (human) = PIK3CB (human) (UniProt P42338)
LIMK1 (human) = LIMK1 (human) (UniProt P53667)
MAP4K3 (human) = MAP4K3 (human) (UniProt Q8IVH8)
FGFR1 (human) = FGFR1 (human) (UniProt P11362)
TEK (human) = TEK (human) (UniProt Q02763)
TYRO3 (human) = TYRO3 (human) (UniProt Q06418)
TSSK1B (human) = TSSK1B (human) (UniProt Q9BXA7)
GAK (human) = GAK (human) (UniProt O14976)
SBK1 (human) = SBK1 (human) (UniProt Q52WX2)
PIP5K1A (human) = PIP5K1A (human) (UniProt Q99755)
VRK2 (human) = VRK2 (human) (UniProt Q86Y07)
VRK2 (human), sequence (Q86Y07 whole entry, looked up): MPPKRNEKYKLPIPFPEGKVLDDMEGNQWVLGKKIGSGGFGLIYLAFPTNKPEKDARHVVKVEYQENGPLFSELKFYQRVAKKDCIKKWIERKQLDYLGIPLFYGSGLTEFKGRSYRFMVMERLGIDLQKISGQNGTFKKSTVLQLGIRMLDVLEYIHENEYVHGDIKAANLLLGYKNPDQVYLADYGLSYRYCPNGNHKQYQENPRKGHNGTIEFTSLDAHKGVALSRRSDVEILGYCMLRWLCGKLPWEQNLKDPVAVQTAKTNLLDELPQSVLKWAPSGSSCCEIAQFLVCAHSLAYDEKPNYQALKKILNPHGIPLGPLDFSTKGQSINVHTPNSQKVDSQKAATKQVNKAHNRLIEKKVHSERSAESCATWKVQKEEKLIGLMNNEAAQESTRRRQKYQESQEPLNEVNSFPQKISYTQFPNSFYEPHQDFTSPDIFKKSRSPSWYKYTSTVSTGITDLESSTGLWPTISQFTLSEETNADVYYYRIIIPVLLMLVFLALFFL

CSNK1A1L (human), sequence (Q8N752 whole entry, looked up): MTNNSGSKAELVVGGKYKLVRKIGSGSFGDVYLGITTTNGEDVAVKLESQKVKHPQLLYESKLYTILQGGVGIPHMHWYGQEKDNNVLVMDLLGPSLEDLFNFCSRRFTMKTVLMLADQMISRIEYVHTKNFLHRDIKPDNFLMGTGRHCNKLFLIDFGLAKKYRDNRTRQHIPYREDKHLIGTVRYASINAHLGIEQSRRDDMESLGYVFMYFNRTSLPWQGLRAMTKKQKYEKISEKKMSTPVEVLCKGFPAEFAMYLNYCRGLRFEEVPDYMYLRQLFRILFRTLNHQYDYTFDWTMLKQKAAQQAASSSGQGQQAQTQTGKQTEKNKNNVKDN
GAK (human), sequence (O14976 whole entry, looked up): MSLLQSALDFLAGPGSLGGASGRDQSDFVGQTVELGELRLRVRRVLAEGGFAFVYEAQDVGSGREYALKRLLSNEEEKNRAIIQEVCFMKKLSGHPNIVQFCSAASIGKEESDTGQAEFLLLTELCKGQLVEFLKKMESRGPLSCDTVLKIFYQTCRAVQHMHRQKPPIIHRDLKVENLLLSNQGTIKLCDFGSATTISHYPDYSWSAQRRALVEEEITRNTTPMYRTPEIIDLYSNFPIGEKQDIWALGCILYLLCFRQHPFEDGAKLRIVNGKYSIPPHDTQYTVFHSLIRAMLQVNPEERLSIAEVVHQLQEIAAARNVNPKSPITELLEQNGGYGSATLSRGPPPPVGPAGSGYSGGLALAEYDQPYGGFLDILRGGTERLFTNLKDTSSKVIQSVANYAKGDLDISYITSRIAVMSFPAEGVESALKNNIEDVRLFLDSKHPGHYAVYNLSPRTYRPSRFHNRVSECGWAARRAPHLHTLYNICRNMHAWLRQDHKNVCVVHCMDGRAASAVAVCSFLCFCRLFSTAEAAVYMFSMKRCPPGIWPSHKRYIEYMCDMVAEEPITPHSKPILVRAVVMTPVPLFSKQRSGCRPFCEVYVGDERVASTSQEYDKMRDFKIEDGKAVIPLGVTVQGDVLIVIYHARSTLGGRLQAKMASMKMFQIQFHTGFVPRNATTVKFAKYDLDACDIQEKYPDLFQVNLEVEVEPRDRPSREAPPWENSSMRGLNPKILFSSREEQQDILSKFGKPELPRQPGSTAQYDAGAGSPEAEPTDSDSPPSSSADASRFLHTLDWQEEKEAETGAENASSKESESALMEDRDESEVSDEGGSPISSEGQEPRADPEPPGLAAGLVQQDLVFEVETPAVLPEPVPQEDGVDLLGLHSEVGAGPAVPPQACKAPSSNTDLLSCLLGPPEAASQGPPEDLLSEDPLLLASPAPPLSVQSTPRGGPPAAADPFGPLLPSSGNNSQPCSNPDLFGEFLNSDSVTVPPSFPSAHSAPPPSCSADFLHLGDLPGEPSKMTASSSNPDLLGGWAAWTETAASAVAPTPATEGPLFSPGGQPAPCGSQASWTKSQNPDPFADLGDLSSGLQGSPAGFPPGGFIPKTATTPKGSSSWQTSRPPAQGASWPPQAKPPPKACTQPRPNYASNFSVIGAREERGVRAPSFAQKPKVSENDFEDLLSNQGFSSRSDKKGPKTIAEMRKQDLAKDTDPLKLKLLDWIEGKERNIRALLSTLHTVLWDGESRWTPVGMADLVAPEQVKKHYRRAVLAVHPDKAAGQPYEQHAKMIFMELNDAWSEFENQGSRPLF
TGFBR1 (human), sequence (P36897 whole entry, looked up): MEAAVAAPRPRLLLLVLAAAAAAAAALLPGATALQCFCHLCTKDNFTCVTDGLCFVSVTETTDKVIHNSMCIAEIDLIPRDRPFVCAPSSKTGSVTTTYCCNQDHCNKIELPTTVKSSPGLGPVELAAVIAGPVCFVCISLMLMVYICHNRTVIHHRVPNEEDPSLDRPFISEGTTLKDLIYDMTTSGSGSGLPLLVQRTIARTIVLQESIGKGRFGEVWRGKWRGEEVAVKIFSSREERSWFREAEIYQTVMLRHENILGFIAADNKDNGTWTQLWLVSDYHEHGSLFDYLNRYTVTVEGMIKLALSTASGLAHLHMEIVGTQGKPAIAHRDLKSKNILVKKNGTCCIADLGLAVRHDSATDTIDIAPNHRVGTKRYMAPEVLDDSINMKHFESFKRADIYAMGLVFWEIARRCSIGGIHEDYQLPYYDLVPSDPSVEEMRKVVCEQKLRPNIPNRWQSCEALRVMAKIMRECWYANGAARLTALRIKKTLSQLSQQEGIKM
PRKCE (human), sequence (Q02156 whole entry, looked up): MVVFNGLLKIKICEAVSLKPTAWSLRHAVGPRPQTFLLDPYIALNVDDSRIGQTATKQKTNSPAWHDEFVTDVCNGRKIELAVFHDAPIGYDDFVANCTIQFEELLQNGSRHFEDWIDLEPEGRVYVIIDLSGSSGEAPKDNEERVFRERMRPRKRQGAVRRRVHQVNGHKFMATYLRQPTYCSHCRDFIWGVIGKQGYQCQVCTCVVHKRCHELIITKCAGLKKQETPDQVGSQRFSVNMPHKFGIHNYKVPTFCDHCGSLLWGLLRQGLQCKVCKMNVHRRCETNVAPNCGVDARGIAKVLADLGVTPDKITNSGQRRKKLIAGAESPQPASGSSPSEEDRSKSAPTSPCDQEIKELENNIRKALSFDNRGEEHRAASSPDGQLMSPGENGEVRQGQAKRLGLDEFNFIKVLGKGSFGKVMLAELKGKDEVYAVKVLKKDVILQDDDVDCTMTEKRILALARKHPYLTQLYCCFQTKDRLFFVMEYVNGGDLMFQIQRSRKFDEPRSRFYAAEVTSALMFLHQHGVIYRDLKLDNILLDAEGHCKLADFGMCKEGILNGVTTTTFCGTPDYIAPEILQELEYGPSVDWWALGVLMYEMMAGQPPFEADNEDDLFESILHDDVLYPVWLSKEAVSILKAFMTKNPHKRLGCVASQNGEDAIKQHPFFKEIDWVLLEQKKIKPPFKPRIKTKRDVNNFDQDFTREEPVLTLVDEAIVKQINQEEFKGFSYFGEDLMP
PAK4 (human), sequence (O96013 whole entry, looked up): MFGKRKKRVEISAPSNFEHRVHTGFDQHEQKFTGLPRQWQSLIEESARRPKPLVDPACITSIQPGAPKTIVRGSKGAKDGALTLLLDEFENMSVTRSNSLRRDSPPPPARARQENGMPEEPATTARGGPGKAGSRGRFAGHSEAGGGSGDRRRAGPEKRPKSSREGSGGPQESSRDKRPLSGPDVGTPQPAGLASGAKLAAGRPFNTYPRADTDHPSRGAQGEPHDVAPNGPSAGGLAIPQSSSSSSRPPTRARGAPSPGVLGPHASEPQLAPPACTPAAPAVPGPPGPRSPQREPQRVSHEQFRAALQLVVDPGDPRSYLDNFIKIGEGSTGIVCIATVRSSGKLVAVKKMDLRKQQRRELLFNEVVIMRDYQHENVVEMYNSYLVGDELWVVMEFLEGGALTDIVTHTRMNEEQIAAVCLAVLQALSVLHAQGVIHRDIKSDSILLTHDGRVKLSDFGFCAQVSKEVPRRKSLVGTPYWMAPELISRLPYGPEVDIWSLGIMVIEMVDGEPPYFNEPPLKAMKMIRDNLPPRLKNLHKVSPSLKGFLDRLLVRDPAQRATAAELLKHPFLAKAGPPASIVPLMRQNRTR
MAP4K3 (human), sequence (Q8IVH8 whole entry, looked up): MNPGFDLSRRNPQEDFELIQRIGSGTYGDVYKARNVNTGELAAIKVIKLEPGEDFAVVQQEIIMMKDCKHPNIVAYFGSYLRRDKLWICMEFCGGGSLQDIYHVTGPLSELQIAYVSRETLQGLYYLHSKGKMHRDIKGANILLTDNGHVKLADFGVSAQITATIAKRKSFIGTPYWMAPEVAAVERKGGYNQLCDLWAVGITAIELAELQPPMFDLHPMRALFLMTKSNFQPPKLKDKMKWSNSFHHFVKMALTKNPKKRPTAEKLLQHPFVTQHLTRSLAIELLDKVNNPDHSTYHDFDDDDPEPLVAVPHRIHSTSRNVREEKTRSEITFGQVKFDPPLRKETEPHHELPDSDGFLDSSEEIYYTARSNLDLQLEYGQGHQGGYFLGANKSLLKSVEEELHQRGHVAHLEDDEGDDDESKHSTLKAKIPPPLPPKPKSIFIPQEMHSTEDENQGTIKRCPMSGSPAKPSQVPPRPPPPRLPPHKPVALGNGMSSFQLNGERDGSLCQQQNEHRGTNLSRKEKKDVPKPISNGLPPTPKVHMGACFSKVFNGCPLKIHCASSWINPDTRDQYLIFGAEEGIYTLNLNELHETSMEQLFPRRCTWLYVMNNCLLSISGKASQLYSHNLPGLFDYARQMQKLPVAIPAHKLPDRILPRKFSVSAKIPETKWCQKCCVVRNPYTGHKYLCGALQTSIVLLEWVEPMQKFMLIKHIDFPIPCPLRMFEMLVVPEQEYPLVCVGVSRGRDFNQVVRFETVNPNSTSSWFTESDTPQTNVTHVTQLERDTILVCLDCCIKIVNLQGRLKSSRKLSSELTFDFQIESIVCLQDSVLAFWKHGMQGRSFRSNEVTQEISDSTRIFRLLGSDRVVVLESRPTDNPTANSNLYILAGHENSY

SMILES | kinase still bound, per cent of control (CAMK1D (human)) [%] | kinase still bound, per cent of control (RPS6KA6 KD1 (human)) [%] | kinase still bound, per cent of control (CDK18 (human)) [%] | kinase still bound, per cent of control (DMPK (human)) [%] | kinase still bound, per cent of control (STK35 (human)) [%] | kinase still bound, per cent of control (CAMK2A (human)) [%] | kinase still bound, per cent of control (PIK3C2G (human)) [%] | kinase still bound, per cent of control (CDK13 (human)) [%] | kinase still bound, per cent of control (PKMYT1 (human)) [%] | kinase still bound, per cent of control (PRKCE (human)) [%] | kinase still bound, per cent of control (CRK2 (P.falciparum)) [%] | kinase still bound, per cent of control (PIM3 (human)) [%] | kinase still bound, per cent of control (NTRK2 (human)) [%] | kinase still bound, per cent of control (MELK (human)) [%] | kinase still bound, per cent of control (EPHA7 (human)) [%] | kinase still bound, per cent of control (MAP3K9 (human)) [%] | kinase still bound, per cent of control (STK38 (human)) [%] | kinase still bound, per cent of control (GRK4 (human)) [%] | kinase still bound, per cent of control (PRPF4B (human)) [%] | kinase still bound, per cent of control (TGFBR1 (human)) [%] | other results
N#C/C(=C1/Nc2ccccc2S1)c1ccnc(NCCc2cccnc2)n1 | 70 | 28 | 92 | 100 | 85 | 46 | 8.8 | 61 | 95 | 92 | 100 | 2.3 | 56 | 100 | 99 | 74 | 91 | 32 | 79 | 100 | kinase still bound, per cent of control (CDK8 (human)): 100%; kinase still bound, per cent of control (CSNK1A1L (human)): 67%; kinase still bound, per cent of control [1]: 22%; kinase still bound, per cent of control (ACVRL1 (human)): 100%; kinase still bound, per cent of control (PAK4 (human)): 78%; kinase still bound, per cent of control (TAOK3 (human)): 24%; kinase still bound, per cent of control (PKN1 (human)): 95%; kinase still bound, per cent of control (NTRK1 (human)): 57%; kinase still bound, per cent of control (RIPK1 (human)): 100%; kinase still bound, per cent of control (PIK3CB (human)): 55%; kinase still bound, per cent of control (LIMK1 (human)): 78%; kinase still bound, per cent of control (MAP4K3 (human)): 80%; kinase still bound, per cent of control (FGFR1 (human)): 98%; kinase still bound, per cent of control (TEK (human)): 100%; kinase still bound, per cent of control (TYRO3 (human)): 100%; kinase still bound, per cent of control (TSSK1B (human)): 100%; kinase still bound, per cent of control (GAK (human)): 4.6%; kinase still bound, per cent of control (SBK1 (human)): 94%; kinase still bound, per cent of control (PIP5K1A (human)): 18%; kinase still bound, per cent of control (VRK2 (human)): 100%
O=c1[nH]c2ccccc2n1C1CCN(Cc2ccc(-c3nc4cc5[nH]cnc5cc4nc3-c3ccccc3)cc2)CC1 | 76 | 75 | 97 | 98 | 100 | 98 | 75 | 98 | 94 | 100 | 100 | 100 | 85 | 77 | 100 | 96 | 62 | 100 | 81 | 100 | kinase still bound, per cent of control (CDK8 (human)): 100%; kinase still bound, per cent of control (CSNK1A1L (human)): 80%; kinase still bound, per cent of control [1]: 66%; kinase still bound, per cent of control (ACVRL1 (human)): 100%; kinase still bound, per cent of control (PAK4 (human)): 74%; kinase still bound, per cent of control (TAOK3 (human)): 84%; kinase still bound, per cent of control (PKN1 (human)): 100%; kinase still bound, per cent of control (NTRK1 (human)): 100%; kinase still bound, per cent of control (RIPK1 (human)): 100%; kinase still bound, per cent of control (PIK3CB (human)): 6.7%; kinase still bound, per cent of control (LIMK1 (human)): 86%; kinase still bound, per cent of control (MAP4K3 (human)): 100%; kinase still bound, per cent of control (FGFR1 (human)): 73%; kinase still bound, per cent of control (TEK (human)): 85%; kinase still bound, per cent of control (TYRO3 (human)): 73%; kinase still bound, per cent of control (TSSK1B (human)): 82%; kinase still bound, per cent of control (GAK (human)): 88%; kinase still bound, per cent of control (SBK1 (human)): 92%; kinase still bound, per cent of control (PIP5K1A (human)): 88%; kinase still bound, per cent of control (VRK2 (human)): 76%
COc1cc2ncnc(Nc3cccc(Cl)c3)c2cc1OC | 83 | 46 | 79 | 79 | 58 | 62 | 43 | 91 | 78 | 75 | 100 | 54 | 80 | 74 | 46 | 86 | 61 | 100 | 84 | 88 | kinase still bound, per cent of control (CDK8 (human)): 100%; kinase still bound, per cent of control (CSNK1A1L (human)): 72%; kinase still bound, per cent of control [1]: 52%; kinase still bound, per cent of control (ACVRL1 (human)): 100%; kinase still bound, per cent of control (PAK4 (human)): 84%; kinase still bound, per cent of control (TAOK3 (human)): 78%; kinase still bound, per cent of control (PKN1 (human)): 94%; kinase still bound, per cent of control (NTRK1 (human)): 88%; kinase still bound, per cent of control (RIPK1 (human)): 100%; kinase still bound, per cent of control (PIK3CB (human)): 47%; kinase still bound, per cent of control (LIMK1 (human)): 100%; kinase still bound, per cent of control (MAP4K3 (human)): 100%; kinase still bound, per cent of control (FGFR1 (human)): 87%; kinase still bound, per cent of control (TEK (human)): 97%; kinase still bound, per cent of control (TYRO3 (human)): 23%; kinase still bound, per cent of control (TSSK1B (human)): 100%; kinase still bound, per cent of control (GAK (human)): 0%; kinase still bound, per cent of control (SBK1 (human)): 25%; kinase still bound, per cent of control (PIP5K1A (human)): 93%; kinase still bound, per cent of control (VRK2 (human)): 35%
